Results as given in the supplement of paper PMC10307832.

Assays:
Test in all cases: relative viability (nuclei count vs DMSO), 5 days (fraction); higher = more cells survive
[1] = test system: EKVX
How it was run: (§1)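 Lung cancer cell lines in 1536-well plates got either a single drug or a fixed anchor-drug dose together with five library-drug doses (not always all listed) in √10 steps, by pin tool, on the day after seeding. Nuclei were counted after 5 days, and relative viability is the treated-to-vehicle ratio of nuclei counts. Values are medians of duplicate plates.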

[2] = test system: NCI-H1666
How it was run: as §1

[3] = test system: NCI-H2342
How it was run: as §1

[4] = test system: HCC-827
How it was run: as §1

[5] = test system: NCI-H647
How it was run: as §1

[6] = test system: NCI-H650
How it was run: as §1

[7] = test system: HCC-44
How it was run: as §1

[8] = test system: 201T
How it was run: as §1

[9] = test system: NCI-H1975
How it was run: as §1

[10] = test system: COR-L 105
How it was run: as §1

[11] = test system: NCI-H2170
How it was run: as §1

[12] = test system: NCI-H1437
How it was run: as §1

[13] = test system: H3255
How it was run: as §1

[14] = test system: LCLC-97TM1
How it was run: as §1

[15] = test system: LU99A
How it was run: as §1

[16] = test system: EPLC-272H
How it was run: as §1

[17] = test system: NCI-H2085
How it was run: as §1

[18] = test system: NCI-H2087
How it was run: as §1

[19] = test system: SW 1573
How it was run: as §1

[20] = test system: BEN
How it was run: as §1

[21] = test system: PC-3 [JPC-3]
How it was run: as §1

[22] = test system: LOU-NH91
How it was run: as §1

## O=c1cc(-c2cccc3c2Sc2ccccc2S3)oc(N2CCOCC2)c1 + Nc1nc2[nH]cc(CCc3ccc(C(=O)N[C@@H](CCC(=O)O)C(=O)O)cc3)c2c(=O)[nH]1 [Pemetrexed] (partner 0.2 µM)
[1]; first compound 0.08 µM
  relative viability: 0.428
[1]; first compound 0.253 µM
  relative viability: 0.376
[1]; first compound 0.8 µM
  relative viability: 0.381
[1]; first compound 2.53 µM
  relative viability: 0.482
[1]; first compound 8 µM
  relative viability: 0.436
[2]; first compound 0.08 µM
  relative viability: 0.844
[2]; first compound 0.253 µM
  relative viability: 0.913
[2]; first compound 0.8 µM
  relative viability: 0.762
[2]; first compound 2.53 µM
  relative viability: 0.758
[2]; first compound 8 µM
  relative viability: 0.793
[3]; first compound 0.08 µM
  relative viability: 0.703
[3]; first compound 0.253 µM
  relative viability: 0.817
[3]; first compound 0.8 µM
  relative viability: 0.718
[3]; first compound 2.53 µM
  relative viability: 0.725
[3]; first compound 8 µM
  relative viability: 0.848
[4]; first compound 0.08 µM
  relative viability: 0.231
[4]; first compound 0.253 µM
  relative viability: 0.272
[4]; first compound 0.8 µM
  relative viability: 0.244
[4]; first compound 2.53 µM
  relative viability: 0.264
[4]; first compound 8 µM
  relative viability: 0.228
[5]; first compound 0.08 µM
  relative viability: 0.168
[5]; first compound 0.253 µM
  relative viability: 0.149
[5]; first compound 0.8 µM
  relative viability: 0.17
[5]; first compound 2.53 µM
  relative viability: 0.169
[5]; first compound 8 µM
  relative viability: 0.159
[6]; first compound 0.08 µM
  relative viability: 0.917
[6]; first compound 0.253 µM
  relative viability: 0.964
[6]; first compound 0.8 µM
  relative viability: 0.878
[6]; first compound 2.53 µM
  relative viability: 0.74
[6]; first compound 8 µM
  relative viability: 0.866
[7]; first compound 0.08 µM
  relative viability: 0.63
[7]; first compound 0.253 µM
  relative viability: 0.641
[7]; first compound 0.8 µM
  relative viability: 0.607
[7]; first compound 2.53 µM
  relative viability: 0.67
[7]; first compound 8 µM
  relative viability: 0.676
[8]; first compound 0.08 µM
  relative viability: 0.302
[8]; first compound 0.253 µM
  relative viability: 0.353
[8]; first compound 0.8 µM
  relative viability: 0.37
[8]; first compound 2.53 µM
  relative viability: 0.287
[8]; first compound 8 µM
  relative viability: 0.302
[9]; first compound 0.08 µM
  relative viability: 0.318
[9]; first compound 0.253 µM
  relative viability: 0.29
[9]; first compound 0.8 µM
  relative viability: 0.313
[9]; first compound 2.53 µM
  relative viability: 0.287
[9]; first compound 8 µM
  relative viability: 0.288
[10]; first compound 0.08 µM
  relative viability: 1.08
[10]; first compound 0.253 µM
  relative viability: 0.835
[10]; first compound 0.8 µM
  relative viability: 1.1
[10]; first compound 2.53 µM
  relative viability: 0.918
[10]; first compound 8 µM
  relative viability: 1.14
[11]; first compound 0.08 µM
  relative viability: 0.268
[11]; first compound 0.253 µM
  relative viability: 0.271
[11]; first compound 0.8 µM
  relative viability: 0.292
[11]; first compound 2.53 µM
  relative viability: 0.256
[11]; first compound 8 µM
  relative viability: 0.262
[12]; first compound 0.08 µM
  relative viability: 0.339
[12]; first compound 0.253 µM
  relative viability: 0.354
[12]; first compound 0.8 µM
  relative viability: 0.435
[12]; first compound 2.53 µM
  relative viability: 0.288
[12]; first compound 8 µM
  relative viability: 0.3
[13]; first compound 0.08 µM
  relative viability: 0.474
[13]; first compound 0.253 µM
  relative viability: 0.547
[13]; first compound 0.8 µM
  relative viability: 0.533
[13]; first compound 2.53 µM
  relative viability: 0.552
[13]; first compound 8 µM
  relative viability: 0.56
[14]; first compound 0.08 µM
  relative viability: 0.175
[14]; first compound 0.253 µM
  relative viability: 0.169
[14]; first compound 0.8 µM
  relative viability: 0.18
[14]; first compound 2.53 µM
  relative viability: 0.177
[14]; first compound 8 µM
  relative viability: 0.175
[15]; first compound 0.08 µM
  relative viability: 0.201
[15]; first compound 0.253 µM
  relative viability: 0.169
[15]; first compound 0.8 µM
  relative viability: 0.184
[15]; first compound 2.53 µM
  relative viability: 0.324
[15]; first compound 8 µM
  relative viability: 0.187
[16]; first compound 0.08 µM
  relative viability: 0.296
[16]; first compound 0.253 µM
  relative viability: 0.224
[16]; first compound 0.8 µM
  relative viability: 0.333
[16]; first compound 2.53 µM
  relative viability: 0.304
[16]; first compound 8 µM
  relative viability: 0.197
[17]; first compound 0.08 µM
  relative viability: 0.828
[17]; first compound 0.253 µM
  relative viability: 0.962
[17]; first compound 0.8 µM
  relative viability: 0.934
[17]; first compound 2.53 µM
  relative viability: 0.757
[17]; first compound 8 µM
  relative viability: 0.773
[18]; first compound 0.08 µM
  relative viability: 0.669
[18]; first compound 0.253 µM
  relative viability: 0.662
[18]; first compound 0.8 µM
  relative viability: 0.726
[18]; first compound 2.53 µM
  relative viability: 0.649
[18]; first compound 8 µM
  relative viability: 0.674
[19]; first compound 0.08 µM
  relative viability: 0.754
[19]; first compound 0.253 µM
  relative viability: 1.11
[19]; first compound 0.8 µM
  relative viability: 0.865
[19]; first compound 2.53 µM
  relative viability: 0.838
[19]; first compound 8 µM
  relative viability: 0.924
[20]; first compound 0.08 µM
  relative viability: 0.72
[20]; first compound 0.253 µM
  relative viability: 0.834
[20]; first compound 0.8 µM
  relative viability: 0.696
[20]; first compound 2.53 µM
  relative viability: 0.801
[20]; first compound 8 µM
  relative viability: 1.07
[21]; first compound 0.08 µM
  relative viability: 0.721
[21]; first compound 0.253 µM
  relative viability: 1.11
[21]; first compound 0.8 µM
  relative viability: 1.3
[21]; first compound 2.53 µM
  relative viability: 0.996
[21]; first compound 8 µM
  relative viability: 1.08
[22]; first compound 0.08 µM
  relative viability: 0.332
[22]; first compound 0.253 µM
  relative viability: 0.34
[22]; first compound 0.8 µM
  relative viability: 0.367
[22]; first compound 2.53 µM
  relative viability: 0.397
[22]; first compound 8 µM
  relative viability: 0.31
